Results taken from US20250170248A1, “SMARCA DEGRADERS AND USES THEREOF” (Kymera Therapeutics, Inc., priority 2021, published 2025).

Assays:
Type in all cases: cell-based
[1] = target: T1, SMARCA2 (Homo sapiens, UniProt P51531); assay: MSD SMARCA2 degradation in A549 cell line; settings: for Dmax: A549, A549 cells; for Dmax / DC50: 24 h; for DC50 / SMARCA2 MSD A549 degradation 24 h: Average Dmax %: A549 cells; for DC50: read-out: SMARCA2 MSD A549 degradation 24 h: Average external-Abs DC50
How it was run: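 A549 cells treated 24 h with compound, 3-fold series from 1000 nM. Lysates captured on MSD plates and SMARCA2 quantified with anti-SMARCA2 and SULFO-TAG secondary antibodies (electrochemiluminescence). DC50 and Dmax (% degradation at 24 h) reported as letter bins.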

[2] = target: T2, SMARCA4 (Homo sapiens, UniProt P51532); assay: SMARCA4 Western blot degradation in MV4-11 cells; settings: for Dmax: MV4-11, MV4-11 cells, read-out: SMARCA4 MSD MV411 degradation 24 h: average Dmax %; for Dmax / DC50: 24 h; for DC50 / SMARCA4 MSD MV411 degradation 24 h: average Dmax %: MV4-11 cells; for DC50: read-out: SMARCA4 MSD MV411 degradation 24 h: Mean external-Abs DC50
T2 construct: SMARCA2/SMARCA4 protein degradation selectivity in MV4-11 cells; endogenous in cells; host or cells: MV4-11
How it was run: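 24 h compound exposure, MV4-11; RIPA lysates → SDS-PAGE → NC membrane; anti-SMARCA2/BRM, anti-BRG1, β-actin loading control; LI-COR fluorescence read. DC50 and Dmax at 24 h reported as letter bins.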

[3] = target: T1, SMARCA2; assay: SMARCA2 Western blot degradation in MV4-11 cells; design: SMARCA2/SMARCA4 protein degradation selectivity in MV4-11 cells; endogenous in cells; host or cells: MV4-11; settings: for Dmax: MV4-11, MV4-11 cells, read-out: SMARCA2 MSD MV411 degradation 24 h: average Dmax %; for Dmax / DC50 / SMARCA2 MSD MV411 degradation 24 h: average Dmax %: 24 h; for DC50 / Selectivity in MV411 / SMARCA2 MSD MV411 degradation 24 h: average Dmax %: MV4-11 cells; for DC50: read-out: SMARCA2 MSD MV411 degradation 24 h: Mean external-Abs DC50; for Selectivity in MV411: SMARCA2/4 selectivity

T1 sequence (P51531 whole entry): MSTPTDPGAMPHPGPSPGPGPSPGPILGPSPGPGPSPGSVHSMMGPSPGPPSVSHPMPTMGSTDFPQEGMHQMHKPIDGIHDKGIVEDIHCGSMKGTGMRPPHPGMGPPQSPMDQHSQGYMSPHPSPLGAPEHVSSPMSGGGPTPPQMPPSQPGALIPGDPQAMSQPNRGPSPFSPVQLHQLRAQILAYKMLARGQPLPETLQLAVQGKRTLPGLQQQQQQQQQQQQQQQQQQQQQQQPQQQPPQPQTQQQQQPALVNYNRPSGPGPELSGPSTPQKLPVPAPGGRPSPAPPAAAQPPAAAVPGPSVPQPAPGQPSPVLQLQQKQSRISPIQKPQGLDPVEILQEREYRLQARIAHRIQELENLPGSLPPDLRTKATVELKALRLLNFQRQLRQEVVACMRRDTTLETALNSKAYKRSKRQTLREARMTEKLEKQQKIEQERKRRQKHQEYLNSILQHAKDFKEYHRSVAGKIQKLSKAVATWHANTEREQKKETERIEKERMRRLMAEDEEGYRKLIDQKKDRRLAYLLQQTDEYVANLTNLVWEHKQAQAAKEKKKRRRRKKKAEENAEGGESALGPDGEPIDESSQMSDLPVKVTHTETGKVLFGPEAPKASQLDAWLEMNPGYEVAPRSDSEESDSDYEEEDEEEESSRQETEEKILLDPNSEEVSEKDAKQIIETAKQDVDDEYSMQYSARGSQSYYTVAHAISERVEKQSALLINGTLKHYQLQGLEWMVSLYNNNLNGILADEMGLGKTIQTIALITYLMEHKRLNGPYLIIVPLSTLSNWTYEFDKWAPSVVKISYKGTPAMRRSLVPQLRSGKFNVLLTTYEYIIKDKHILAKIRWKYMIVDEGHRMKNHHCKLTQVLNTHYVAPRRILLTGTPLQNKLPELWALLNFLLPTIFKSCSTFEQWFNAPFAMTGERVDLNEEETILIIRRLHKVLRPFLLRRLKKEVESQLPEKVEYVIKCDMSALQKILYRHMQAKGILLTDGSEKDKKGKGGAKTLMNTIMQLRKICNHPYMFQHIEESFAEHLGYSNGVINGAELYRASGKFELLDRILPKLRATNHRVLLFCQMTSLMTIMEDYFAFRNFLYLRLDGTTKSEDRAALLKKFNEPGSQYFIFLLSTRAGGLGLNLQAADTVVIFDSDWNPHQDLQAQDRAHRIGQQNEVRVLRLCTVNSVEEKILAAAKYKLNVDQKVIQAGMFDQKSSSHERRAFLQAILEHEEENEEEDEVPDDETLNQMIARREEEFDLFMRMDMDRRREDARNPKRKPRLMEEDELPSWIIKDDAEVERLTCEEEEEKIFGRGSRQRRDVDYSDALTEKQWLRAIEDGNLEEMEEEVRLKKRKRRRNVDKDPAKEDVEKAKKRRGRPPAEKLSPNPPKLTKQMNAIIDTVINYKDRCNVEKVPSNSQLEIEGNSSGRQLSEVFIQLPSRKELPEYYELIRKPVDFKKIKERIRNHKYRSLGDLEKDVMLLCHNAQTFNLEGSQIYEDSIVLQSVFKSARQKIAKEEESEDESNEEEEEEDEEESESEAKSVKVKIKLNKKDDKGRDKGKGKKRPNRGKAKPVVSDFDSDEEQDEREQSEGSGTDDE
T2 sequence (P51532 whole entry): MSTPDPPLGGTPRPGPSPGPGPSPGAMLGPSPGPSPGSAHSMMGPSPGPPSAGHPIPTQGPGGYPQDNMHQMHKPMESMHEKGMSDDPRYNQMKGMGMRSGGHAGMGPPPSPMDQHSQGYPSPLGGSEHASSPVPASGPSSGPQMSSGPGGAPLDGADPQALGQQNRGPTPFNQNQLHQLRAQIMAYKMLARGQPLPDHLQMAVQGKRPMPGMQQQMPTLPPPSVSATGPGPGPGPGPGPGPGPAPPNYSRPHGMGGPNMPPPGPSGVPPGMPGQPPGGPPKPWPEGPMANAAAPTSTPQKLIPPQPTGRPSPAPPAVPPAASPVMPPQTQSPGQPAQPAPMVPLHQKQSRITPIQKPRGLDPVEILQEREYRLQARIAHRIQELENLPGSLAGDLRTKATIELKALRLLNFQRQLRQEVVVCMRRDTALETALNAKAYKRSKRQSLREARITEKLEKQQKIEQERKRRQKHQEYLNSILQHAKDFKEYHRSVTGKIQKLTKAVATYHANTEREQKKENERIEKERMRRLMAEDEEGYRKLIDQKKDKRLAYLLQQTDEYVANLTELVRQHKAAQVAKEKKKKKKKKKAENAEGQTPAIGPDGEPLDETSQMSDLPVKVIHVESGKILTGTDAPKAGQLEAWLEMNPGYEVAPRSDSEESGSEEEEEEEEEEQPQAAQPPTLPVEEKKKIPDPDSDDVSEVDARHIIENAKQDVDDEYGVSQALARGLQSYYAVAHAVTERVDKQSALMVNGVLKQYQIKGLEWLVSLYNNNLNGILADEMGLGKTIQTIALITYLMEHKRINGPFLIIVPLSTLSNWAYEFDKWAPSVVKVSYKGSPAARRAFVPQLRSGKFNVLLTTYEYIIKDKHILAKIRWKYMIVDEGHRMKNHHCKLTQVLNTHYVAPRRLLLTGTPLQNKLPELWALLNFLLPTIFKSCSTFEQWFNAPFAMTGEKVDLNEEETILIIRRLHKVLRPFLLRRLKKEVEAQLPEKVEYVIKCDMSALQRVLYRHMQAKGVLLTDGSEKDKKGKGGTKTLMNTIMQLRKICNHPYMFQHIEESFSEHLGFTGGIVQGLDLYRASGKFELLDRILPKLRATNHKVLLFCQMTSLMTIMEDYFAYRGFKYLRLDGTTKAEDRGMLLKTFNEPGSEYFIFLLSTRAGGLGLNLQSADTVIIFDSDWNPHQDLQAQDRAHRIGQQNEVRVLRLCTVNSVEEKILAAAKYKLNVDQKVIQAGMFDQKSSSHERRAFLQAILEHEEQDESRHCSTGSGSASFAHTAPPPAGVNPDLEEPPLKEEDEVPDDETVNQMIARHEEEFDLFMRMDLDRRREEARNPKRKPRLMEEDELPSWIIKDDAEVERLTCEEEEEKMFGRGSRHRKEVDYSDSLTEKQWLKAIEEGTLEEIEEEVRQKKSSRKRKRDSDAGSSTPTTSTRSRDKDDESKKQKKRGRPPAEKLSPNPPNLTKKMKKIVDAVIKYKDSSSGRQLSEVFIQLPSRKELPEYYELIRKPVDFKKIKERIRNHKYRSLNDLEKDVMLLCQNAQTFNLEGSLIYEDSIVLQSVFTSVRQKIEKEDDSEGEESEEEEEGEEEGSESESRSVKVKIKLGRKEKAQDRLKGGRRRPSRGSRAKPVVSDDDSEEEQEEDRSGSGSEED

| Dmax [1] | DC50 [1] | Dmax [2] | DC50 [2] | Dmax [3] | DC50 [3] | Selectivity in MV411 [3] | SMARCA2 MSD A549 degradation 24 h: Average Dmax % [1] | SMARCA4 MSD MV411 degradation 24 h: average Dmax % [2] | SMARCA2 MSD MV411 degradation 24 h: average Dmax % [3] | Structure (SMILES) |
| --- | --- | --- | --- | --- | --- | --- | --- | --- | --- | --- |
| > 90% | 10 to 50 nM | 50 to 70% | > 100 nM | 70 to 90% | 1 to 10 nM | C (C (10-100 fold)) |  |  |  | C#Cc1ccc([C@H](C)NC(=O)[C@@H]2C[C@@H](O)CN2C(=O)[C@@H](NC(=O)N2CC3(CC(N4CCC(c5cnc(N6CCc7[nH]c8nnc(-c9ccccc9O)cc8c7[C@H]6C)nc5)CC4)C3)C2)C(C)(C)C)cc1 [I-151] |
| 50 to 70% | > 100 nM | < 50% | > 100 nM | 50 to 70% | > 100 nM | D (D (<10 fold)) |  |  |  | C#Cc1ccc([C@@H](CO)NC(=O)[C@@H]2C[C@@H](O)CN2C(=O)[C@@H](NC(=O)N2CC3(CC(N4CCC(c5cnc(N6CCc7[nH]c8nnc(-c9ccccc9O)cc8c7[C@H]6C)nc5)CC4)C3)C2)C(C)(C)C)nc1 [I-305] |
|  | 50 to 100 nM |  | > 100 nM |  | 10 to 100 nM | B (B (>100-500 fold)) | B (B (>70-90% degradation)) | D (D (<50% degradation)) | B (B (>70-90% degradation)) | C#Cc1ccc(CNC(=O)[C@@H]2C[C@@H](O)CN2C(=O)[C@@H](NC(=O)[C@H]2CCC3(CC2)C[C@H](N2CCN(c4cnc(N5CCN6c7cc(-c8ccccc8O)nnc7NC[C@H]6C5)nc4)CC24CC4)C3)C(C)(C)C)cc1 (some centres unmarked) [I-267] |
| > 90% | > 100 nM | > 90% | > 100 nM | 70 to 90% | 10 to 100 nM | D (D (<10 fold)) |  |  |  | C#Cc1ccc(CNC(=O)[C@@H]2C[C@@H](O)CN2C(=O)[C@@H](NC(=O)N2CCN(CC3CCN(c4cnc(N5CCc6[nH]c7nnc(-c8ccccc8O)cc7c6[C@@H]5C)nc4)CC3)CC2)C(C)(C)C)cc1 [I-160] |
| > 90% | < 10 nM | > 90% | 1 to 10 nM | > 90% | 1 to 10 nM | D (D (<10 fold)) |  |  |  | Cc1ncsc1-c1ccc(CNC(=O)[C@@H]2C[C@@H](O)CN2C(=O)C(c2cc(OC[C@H]3CC[C@H](N4CCC(c5cnc(N6CCc7[nH]c8nnc(-c9ccccc9O)cc8c7[C@H]6C)nc5)CC4)CC3)no2)C(C)C)cc1 (single isomer, unassigned) [I-1] |
|  | 10 to 50 nM |  | 10 to 100 nM |  | 1 to 10 nM | C (C (10-100 fold)) | A (A (>90% degradation)) | B (B (>70-90% degradation)) | A (A (>90% degradation)) | C#Cc1ccc(CNC(=O)[C@@H]2C[C@@H](O)CN2C(=O)[C@@H](NC(=O)[C@H]2CC3(C2)C[C@H](N2CCC(N4CCC(N5CCN6c7cc(-c8ccccc8O)nnc7NC[C@H]6C5)CC4)CC2)C3)C(C)(C)C)c(OC)c1 (single isomer, unassigned) [I-232] |
| 70 to 90% | < 10 nM | > 90% | 1 to 10 nM | > 90% | < 1 nM | D (D (<10 fold)) |  |  |  | Cc1ncsc1-c1ccc(CNC(=O)[C@@H]2C[C@@H](O)CN2C(=O)C(c2cc(N3CC4(CCC(N5CCC(c6cnc(N7CCc8[nH]c9nnc(-c%10ccccc%10O)cc9c8[C@H]7C)nc6)CC5)CC4)C3)no2)C(C)C)cc1 (single isomer, unassigned) [I-14] |
| < 50% | > 100 nM | < 50% | > 100 nM | < 50% | > 100 nM | D (D (<10 fold)) |  |  |  | C#Cc1ccc(CNC(=O)[C@@H]2C[C@@H](O)CN2C(=O)[C@@H](NC(=O)N2CCC[C@@H](CN3CCC(N4CCC(N5CCN6c7cc(-c8ccccc8O)nnc7NC[C@H]6C5)CC4)CC3)C2)C(C)(C)C)cc1 (single isomer, unassigned) [I-253] |
